The values that follow come from patent publication US8263762B2, “Alkoxy-carbonyl-amino-alkynyl-adenosine compounds and derivatives thereof as A2AR agonists” (Dogwood Pharmaceuticals, Inc., priority 2009, dated 2012).

The subject of one test is Japanese white rabbits. Kind of test: Test for intraocular pressure reduction using Japanese white rabbits. Type of test: in vivo. The procedure:
(1) Test for intraocular pressure reduction using Japanese white rabbits: In order to examine the usefulness of the present compound as a preventive or therapeutic agent for glaucoma or ocular hypertension, an intraocular pressure lowering effect when the present compound was administered to Japanese white rabbits (sex: male) was evaluated and studied. As the test compound, Compound A was used. […]
Administration method and measurement method: Just before any of the test liquids was administered, one drop of 0.4% oxybuprocaine hydrochloride eye drop was instilled into both eyes of each experimental animal to achieve local anesthesia, and the intraocular pressure was measured using an applanation tonometer. This intraocular pressure was determined as an initial intraocular pressure. […]
After the test liquid was administered, the intraocular pressure of both eyes of each experimental animal was measured at predetermined times (at 1, 2, 4 and 6 hours after administration). […]
Calculation of intraocular pressure reduction degree: The intraocular pressure reduction degree of each test compound administration group at each measurement time was calculated from the following calculation formula. Among the obtained intraocular pressure reduction degrees at respective measurement times, the maximum value was determined as a maximum intraocular pressure reduction degree. […]

Test [1] concerns the target T1, recombinant human A2A receptors (Homo sapiens, UniProt P29274).
T1 construct: made in house; host or cells: Sf9 insect cells, viral (baculovirus) infection; membranes
Briefly: Radioligand binding assay, A2A receptor. Conditions: recombinant human A2A receptors in Sf9 cell membranes; competition binding. The method, then: Cell culture and membrane preparation. Sf9 cells were cultured in Grace's medium supplemented with 10% fetal bovine serum, 2.5 μg/ml amphotericin B and 50 μg/ml gentamycin in an atmosphere of 50% N2/50% O2. Viral infection was performed at a density of 2.5×10^6 cells/mL with a multiplicity of infection of two for each virus used. Infected cells were harvested 3 days post-infection and washed twice in insect PBS (PBS pH 6.3). Cells were then resuspended in lysis buffer (20 mM HEPES pH 7.5, 150 mM NaCl, 3 mM MgCl2, 1 mM β-mercaptoethanol (BME), 5 μg/mL leupeptin, 5 μg/mL pepstatin A, 1 μg/mL aprotinin, and 0.1 mM PMSF) and snap frozen for storage at −80° C. Cells were thawed on ice, brought to 30 mL total volume in lysis buffer, and burst by N2 cavitation (600 psi for 20 minutes). A low-speed centrifugation was performed to remove any unlysed cells (1000×g for 10 minutes), followed by a high-speed centrifugation (17,000×g for 30 minutes). The pellet from the final centrifugation was homogenized in buffer containing 20 mM HEPES pH 8, 100 mM NaCl, 1% glycerol, 2 μg/mL leupeptin, 2 μg/mL pepstatin A, 2 μg/mL Aprotinin, 0.1 mM PMSF, and 10 μM GDP using a small glass homogenizer followed by passage through a 26 gauge needle. Membranes were aliquoted, snap frozen in liquid N2, and stored at −80° C. Membranes from cells stably expressing the human A1 AR(CHO K1 cells) or A3 AR (HEK 293 cells) were prepared as described (Robeva et al., 1996).
Radioligand Binding Assays. Radioligand binding to recombinant human A2A receptors in Sf9 cell membranes was performed using either the radiolabeled agonist, ^125I-APE (Luthin et al., 1995) or the radiolabeled antagonist, ^125I-ZM241385 (^125I-ZM). To detect the high affinity, GTPγS-sensitive state of A1 and A3 AR, we used the agonist, ^125I-ABA (Linden et al., 1985; Linden et al., 1993). Binding experiments were performed in triplicate with 5 μg (A2A) or 25 μg (A1 and A3) membrane protein in a total volume of 0.1 mL HE buffer (20 mM HEPES and 1 mM EDTA) withl U/mL adenosine deaminase and 5 mM MgCl2 with or without 50 μM GTPγS. Membranes were incubated with radioligands at room temperature for three hours (for agonists) or two hours (for antagonists) in Millipore Multiscreen® 96-well GF/C filter plates and assays were terminated by rapid filtration on a cell harvester (Brandel, Gaithersburg, Md.) followed by 4×150 μL washes over 30 seconds with ice cold 10 mM Tris-HCl, pH 7.4, 10 mM MgCl2. Nonspecific binding was measured in the presence of 50 μM NECA. Competition binding assays were performed as described (Robeva et al., 1996) using 0.5-1 nM ^125I-APE, ^125I-ZM241385, or ^125I-ABA. Sometimes it is important to change pipette tips following each serial dilution to prevent transfer on tips of potent hydrophobic compounds. The Ki values for competing compound binding to a single site were derived from IC50 values with correction for radioligand and competing compound depletion as described previously (Linden, 1982). • Linden J (1982) Calculating the Dissociation Constant of an Unlabeled Compound From the Concentration Required to Displace Radiolabel Binding by 50%. J Cycl Nucl Res 8: 163-172. • Linden J, Patel A and Sadek S (1985) [^125I]Aminobenzyladenosine, a New Radioligand With Improved Specific Binding to Adenosine Receptors in Heart. Circ Res 56: 279-284. • Linden J, Taylor H E, Robeva A S, Tucker A L, Stehle J H, Rivkees S A, Fink J S and Reppert S M (1993) Molecular Cloning and Functional Expression of a Sheep A3 Adenosine Receptor with Widespread Tissue Distribution. Mol Pharmacol 44: 524-532. • Luthin D R, Olsson R A, Thompson R D, Sawmiller D R and Linden J (1995) Characterization of Two Affinity States of Adenosine A2A Receptors With a New Radioligand, 2-[2-(4-Amino-3-[^125I]Iodophenyl)Ethylamino] Adenosine. Mol Pharmacol 47: 307-313. • Robeva A S, Woodard R, Luthin D R, Taylor H E and Linden J (1996) Double Tagging Recombinant A1- and A2A-Adenosine Receptors With Hexahistidine and the FLAG Epitope. […]

A further test has as its system human neutrophils. Briefly: Neutrophil oxidative activity (luminol enhanced chemiluminescence). Format: cell-based. The following applies: oxidative activity assay, purified human neutrophils, fMLP-stimulated chemiluminescence, read-out: Functional Activity. The source says:
Chemiluminescence Methods: Luminol enhanced chemiluminescence, a measure of neutrophil oxidative activity, is dependent upon both superoxide production and mobilization of the granule enzyme myeloperoxidase. The light is emitted from unstable high-energy oxygen species such as hypochlorous acid and singlet oxygen generated by activated neutrophils.
Purified human neutrophils (2×10^6/ml) suspended in Hanks balanced salt solution containing 0.1% human serum albumin (HA), adenosine deaminase (1 U/mL) and rolipram (100 nM) were incubated (37 C) in a water bath for 15 min with or without rhTNF (10 U/ml). Following incubation 100 µL aliquots of the PMN were transferred to wells (White walled clear bottom 96 well tissue culture plates Costar #3670; 2 wells/condition) containing […] and luminol (final concentration […]) with or without adenosine agonist (final agonist concentrations 0.01-1000 nM). The plate was incubated 5 min (37 C) and then fMLP (50 l in HA; final concentration […]) was added to all wells.
Peak chemiluminescence was determined with a Victor 1420 Multilabel Counter in the chemiluminescence mode using the Wallac Workstation software. Data are presented as peak chemiluminescence as percent of activity in the absence of an adenosine agonist. The EC50 was determined using PRISM software. All compounds were tested with PMNs from three separate donors.
Effect of A2A Agonists on Neutrophil Oxidative Activity: f-met-leu-phe (fMLP), luminol, superoxide dismutase, cytochrome C, fibrinogen, adenosine deaminase, and trypan blue were obtained from Sigma Chemical. Ficoll-hypaque was purchased from ICN (Aurora, Ohio), and Cardinal Scientific (Santa Fe, N. Mex.) and Accurate Chemicals and Scientific (Westerbury, N.Y.). Endotoxin (lipopolysaccharide; E. coli K235) was from List Biologicals (Campbell, Calif.). Hanks balanced salt solution (HBSS), and limulus amebocyte lysate assay kit were from BioWittaker (Walkersville, Md.). Human serum albumin (HSA) was from Cutter Biological (Elkhart, Ind.). Recombinant human tumor necrosis factor-α was supplied by Dianippon Pharmaceutical Co. Ltd. (Osaka, Japan). ZM241385 (4-(2-[7-amino-2-(2-furyl)[1,2,4]triazolo[2,3-a][1,3,5]triazin-5-yl amino]ethyl)phenol) was a gift from Simon Poucher, Zeneca Pharmaceuticals, Cheshire, UK. Stock solutions (1 mM and 10 mM in DMSO) were made and stored at −20° C.
Human neutrophil preparation: Purified neutrophils (98% neutrophils and >95% viable by trypan blue exclusion) containing <1 platelet per 5 neutrophils and <50 pg/ml endotoxin (limulus amebocyte lysate assay) were obtained from normal heparinized (10 U/ml) venous blood by a one step Ficoll-hypaque separation procedure (A. Ferrante et al., J. Immunol. Meth., 36, 109 (1980)). […]

As a reminder, the Ki is the dissociation constant of the complex between target and ligand, obtained from inhibition or displacement.

T1 sequence (P29274 whole entry): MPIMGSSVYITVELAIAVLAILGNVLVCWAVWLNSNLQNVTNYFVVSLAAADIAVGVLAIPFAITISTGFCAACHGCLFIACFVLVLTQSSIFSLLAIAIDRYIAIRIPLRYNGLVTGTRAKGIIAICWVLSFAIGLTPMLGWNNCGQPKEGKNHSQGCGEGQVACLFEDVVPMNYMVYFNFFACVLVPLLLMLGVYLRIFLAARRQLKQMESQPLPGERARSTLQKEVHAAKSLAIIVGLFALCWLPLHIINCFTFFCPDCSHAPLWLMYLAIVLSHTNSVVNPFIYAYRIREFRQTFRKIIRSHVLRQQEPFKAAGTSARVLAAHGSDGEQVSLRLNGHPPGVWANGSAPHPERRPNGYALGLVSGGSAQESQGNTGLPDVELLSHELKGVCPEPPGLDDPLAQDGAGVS

As to `COC(=O)N(C)CC#Cc1nc(N)c2ncn([C@@H]3O[C@H](C(=O)NC4CC4)C(O)C3O)c2n1` (stereo partly shown) [Compound A], in the test with Japanese white rabbits (Japanese white rabbits, eye drop), the “intraocular pressure lowering action” value was “exhibited an intraocular pressure lowering action”. In the test on Japanese white rabbits (male Japanese white rabbits, 0.01% (w/v) eye drop, single dose into one eye, maximum of 1, 2, 4 and 6 hours, average of 5 cases), the “Maximum intraocular pressure reduction degree” value amounted to 3.9 mmHg.

Consider `CCOCCCN(CC#Cc1nc(N)c2ncn([C@@H]3O[C@H](C(=O)NC4CC4)C(O)C3O)c2n1)C(=O)OC` (stereo partly shown) [Example 17, N-Cyclopropyl 2-{3-[4-((3-ethoxypropyl)(methoxycarbonyl)amino)]propyn-1-yl}adenosine-5′-uronamide], for which the Ki in test [1] lay in the range of 11 to 100 nM. Moreover, the EC50 in the test with human neutrophils is over 100 nM.
